Experimental data as given in ChEMBL document CHEMBL1201862, “PubChem BioAssay data set” (2004).
Activity calls are given as the source filed them.

Key:
[1] = test system: Vero; assay: Vero cell toxicity, dose response, cytotoxicity control, plate reader, cherry-pick samples (AID 687020); type: functional, cell-based; conditions: Chlorocebus sabaeus
[2] = target: T1, ATP-dependent translocase ABCB1 (Homo sapiens, UniProt P08183); assay: ABCB1 efflux inhibitor potency, dose response, Jurkat-DNR cells, JC-1, flow cytometry, set 2 (AID 504569); type: functional; conditions: read-out: EC50_MICROM_;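 note: potency of pump inhibitors that raise cellular JC-1 green fluorescence up to the nicardipine level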
[3] = target: T1, ATP-dependent translocase ABCB1; assay: ABCG2 efflux pump inhibitor potency, dose response, Ig-MXP3 cells, JC-1, flow cytometry, set 2 (AID 504566); type: functional; conditions: read-out: EC50_MICROM_;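 note: flow cytometry median green fluorescence of retained JC-1 dye; potency of efflux pump inhibition measured as rising substrate retention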
[4] = target: T2, Methionyl-tRNA synthetase, putative (Trypanosoma brucei brucei, UniProt Q38C91); type: functional, Trypanosoma brucei brucei strain 927/4 GUTat10.1
[5] = target: T2, Methionyl-tRNA synthetase, putative; type: functional, Trypanosoma brucei brucei strain 927/4 GUTat10.1; remark: listed apart in the source
[6] = Counterscreen for inhibitors of Trypanosoma brucei methionyl tRNA synthetase (MetRS): Luminescence-based cell-based high throughput dose response assay to identify compounds that are cytotoxic to Jurkat human T lymphocyte cells.; type: functional
[7] = target: Induced myeloid leukemia cell differentiation protein Mcl-1 (Homo sapiens, UniProt Q07820); type: functional
[8] = target: T3, Coagulation factor XII (Homo sapiens, UniProt P00748); type: functional;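 note: activated factor XIIa alpha cleaving a fluorogenic AMC peptide substrate; inhibitor potency from loss of enzyme activity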
T3 sequence (P00748 whole entry): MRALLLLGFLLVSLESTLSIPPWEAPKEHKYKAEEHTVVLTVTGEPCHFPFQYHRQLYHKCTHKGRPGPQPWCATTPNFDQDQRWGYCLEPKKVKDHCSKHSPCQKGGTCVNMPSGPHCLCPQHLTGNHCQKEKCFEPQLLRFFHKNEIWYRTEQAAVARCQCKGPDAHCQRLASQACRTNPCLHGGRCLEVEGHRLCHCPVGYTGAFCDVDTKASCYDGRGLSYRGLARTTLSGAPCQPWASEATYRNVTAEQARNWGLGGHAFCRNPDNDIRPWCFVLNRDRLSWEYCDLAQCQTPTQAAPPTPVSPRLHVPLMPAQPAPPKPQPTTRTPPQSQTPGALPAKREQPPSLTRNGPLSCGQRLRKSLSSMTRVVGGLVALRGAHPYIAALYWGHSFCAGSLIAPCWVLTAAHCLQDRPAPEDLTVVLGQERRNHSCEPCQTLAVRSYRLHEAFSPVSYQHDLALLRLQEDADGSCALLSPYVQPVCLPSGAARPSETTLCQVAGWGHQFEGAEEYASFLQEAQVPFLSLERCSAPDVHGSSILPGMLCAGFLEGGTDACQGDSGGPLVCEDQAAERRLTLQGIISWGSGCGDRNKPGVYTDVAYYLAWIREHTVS

[9] = target: T4, Caspase-3 (Homo sapiens, UniProt P42574); assay: Dose-response confirmation of uHTS inhibitor hits of Sentrin-Specific Protease 8 in a Caspase-3 Fluorescence assay.; type: functional
T4 sequence (P42574 whole entry): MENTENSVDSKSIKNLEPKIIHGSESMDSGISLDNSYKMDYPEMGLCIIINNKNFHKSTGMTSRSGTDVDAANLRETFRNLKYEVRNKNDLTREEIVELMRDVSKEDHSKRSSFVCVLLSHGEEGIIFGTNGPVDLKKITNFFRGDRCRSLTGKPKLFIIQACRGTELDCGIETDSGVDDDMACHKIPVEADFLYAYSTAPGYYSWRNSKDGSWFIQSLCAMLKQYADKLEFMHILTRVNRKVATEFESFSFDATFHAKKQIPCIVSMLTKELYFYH

[10] = target: T5, Sentrin-specific protease 8 (Homo sapiens, UniProt Q96LD8); type: functional
T5 sequence (Q96LD8 whole entry): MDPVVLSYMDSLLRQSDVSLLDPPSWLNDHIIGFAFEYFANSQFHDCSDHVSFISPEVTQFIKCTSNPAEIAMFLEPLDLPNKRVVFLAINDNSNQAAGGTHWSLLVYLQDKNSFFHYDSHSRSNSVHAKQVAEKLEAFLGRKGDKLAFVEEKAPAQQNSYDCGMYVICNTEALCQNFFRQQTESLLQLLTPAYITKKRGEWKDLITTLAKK

[11] = target: T5, Sentrin-specific protease 8; type: functional; remark: listed apart in the source
[12] = ARNT/TACC3 interaction disruptors, potency, confirmation, biochemical, AlphaScreen, cherry-picked samples (AID 651703); type: functional, Homo sapiens;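 note: His-tagged ARNT PAS-B domain paired with GST-TACC3 E629A dimer coactivator fragment; potency of inhibitors that break up the complex and lower AlphaScreen signal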
[13] = test system: INS1; assay: beta cell apoptosis inhibitors, cytokine rescue, dose response, luminescence, retest (AID 449756); type: functional, cell-based; conditions: Rattus norvegicus;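 note: cell death triggered by IL-1 beta plus TNF-alpha plus IFN-gamma mixture; protective hits raise ATP signal compared with cytokine alone wells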
[14] = target: Protein Wnt-3a (Mus musculus, UniProt P27467); assay: Wnt3a-driven reporter signaling inhibition, dose response, selectivity assay for Gli-SUFU antagonist project, Wnt-LIGHT cells, luminescence (AID 651570); type: functional; conditions: read-out: IC50_Mean;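 note: Wnt-LIGHT reporter cells stimulated with conditioned medium from Wnt3a-producing cells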
[15] = target: T6, Heat shock factor protein 1 (Mus musculus, UniProt P38532); assay: HSF1 potentiators in luciferase reporter cells, confirmation, cell-based, NIH3T3, luminescence, dose retest (AID 435004); type: functional;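 note: stress induced by proteasome inhibitor MG132 added 30 min after compound; luciferase reporter driven by HSF1 response element in NIH3T3 cells; actives raise luminescence as potentiators of the MG132 stress response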
T6 sequence (P38532 whole entry): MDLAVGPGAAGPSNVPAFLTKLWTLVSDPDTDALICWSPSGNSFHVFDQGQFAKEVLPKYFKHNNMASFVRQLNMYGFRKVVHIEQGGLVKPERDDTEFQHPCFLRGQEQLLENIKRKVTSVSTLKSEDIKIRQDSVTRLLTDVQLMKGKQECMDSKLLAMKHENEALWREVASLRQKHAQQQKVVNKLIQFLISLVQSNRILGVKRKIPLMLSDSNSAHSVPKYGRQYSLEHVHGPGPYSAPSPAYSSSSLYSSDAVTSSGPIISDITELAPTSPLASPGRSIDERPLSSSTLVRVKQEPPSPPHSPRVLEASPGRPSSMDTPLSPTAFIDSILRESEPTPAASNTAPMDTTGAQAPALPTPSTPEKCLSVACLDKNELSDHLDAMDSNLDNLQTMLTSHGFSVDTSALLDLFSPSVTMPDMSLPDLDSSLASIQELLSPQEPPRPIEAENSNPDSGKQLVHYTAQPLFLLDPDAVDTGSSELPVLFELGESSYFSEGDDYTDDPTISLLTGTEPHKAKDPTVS

[16] = target: Mitochondrial peptide methionine sulfoxide reductase (Bos taurus, UniProt P54149); assay: Absorbance-based biochemical high throughput dose response assay for activators of Methionine sulfoxide reductase A (MsrA).; type: functional
[17] = target: T7, Microphthalmia-associated transcription factor (Homo sapiens, UniProt O75030); assay: TRPM1 promoter luciferase signal decrease, dose response, MITF inhibitor project, cell-based, SK-MEL-5, cherry-picked, set 3 (AID 493073); type: functional
T7 sequence (O75030 whole entry): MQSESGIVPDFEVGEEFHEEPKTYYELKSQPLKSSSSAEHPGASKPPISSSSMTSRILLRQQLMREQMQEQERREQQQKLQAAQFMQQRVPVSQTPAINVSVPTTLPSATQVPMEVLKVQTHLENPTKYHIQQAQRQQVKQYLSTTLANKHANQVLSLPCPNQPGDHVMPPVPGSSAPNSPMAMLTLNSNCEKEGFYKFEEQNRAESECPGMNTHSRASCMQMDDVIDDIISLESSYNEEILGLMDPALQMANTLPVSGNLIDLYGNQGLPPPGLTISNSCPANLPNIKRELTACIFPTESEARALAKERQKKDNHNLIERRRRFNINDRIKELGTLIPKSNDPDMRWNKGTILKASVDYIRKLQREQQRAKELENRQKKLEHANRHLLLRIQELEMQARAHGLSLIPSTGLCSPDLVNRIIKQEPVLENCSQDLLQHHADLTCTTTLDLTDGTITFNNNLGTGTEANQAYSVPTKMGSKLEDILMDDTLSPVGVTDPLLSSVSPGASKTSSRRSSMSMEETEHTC

[18] = target: Hepatocyte nuclear factor 4-alpha (Homo sapiens, UniProt P41235); type: functional, cell-based;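 note: biochemical luminescence-based dose-response counterscreen measuring inhibition of HNF4 dimerization, run alongside a screen for blockers of ABHD5–perilipin-5 interaction; split luciferase complementation of HNF4 fusion proteins in cell lysate measuring dimerization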
[19] = target: T8, Corticotropin-releasing factor receptor 2/Corticotropin-releasing factor-binding protein (Homo sapiens, UniProt P24387+Q13324); assay: activators of CRF receptor 2 with binding protein – uHTS hits, confirmation (AID 602473); type: functional; conditions: read-out: EC50_Mean
T8 sequence (Q13324 whole entry): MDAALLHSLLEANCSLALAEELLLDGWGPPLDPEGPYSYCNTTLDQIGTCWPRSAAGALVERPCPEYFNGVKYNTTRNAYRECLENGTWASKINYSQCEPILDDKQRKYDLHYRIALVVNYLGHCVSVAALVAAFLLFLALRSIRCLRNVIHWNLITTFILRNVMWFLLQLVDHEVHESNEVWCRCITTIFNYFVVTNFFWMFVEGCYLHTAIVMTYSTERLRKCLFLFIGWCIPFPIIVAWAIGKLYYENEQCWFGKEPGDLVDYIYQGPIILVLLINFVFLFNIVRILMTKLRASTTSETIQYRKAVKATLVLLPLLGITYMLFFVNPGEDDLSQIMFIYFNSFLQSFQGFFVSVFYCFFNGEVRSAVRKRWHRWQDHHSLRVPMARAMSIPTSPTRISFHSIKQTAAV
T8 sequence (P24387 whole entry): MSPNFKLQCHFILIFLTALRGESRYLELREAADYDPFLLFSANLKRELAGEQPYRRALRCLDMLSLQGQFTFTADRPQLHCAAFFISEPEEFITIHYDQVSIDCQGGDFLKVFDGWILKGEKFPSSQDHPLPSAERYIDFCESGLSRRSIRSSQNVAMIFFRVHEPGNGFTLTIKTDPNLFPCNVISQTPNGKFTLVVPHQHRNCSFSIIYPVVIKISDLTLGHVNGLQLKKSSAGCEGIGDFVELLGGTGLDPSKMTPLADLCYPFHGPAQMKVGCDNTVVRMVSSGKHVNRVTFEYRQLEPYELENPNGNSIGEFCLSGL

[20] = CRF-BP/CRF-R2 complex antagonists, dose response, cell-based, uHTS hits, 384-well (AID 651639); type: functional, Homo sapiens; conditions: read-out: IC50_Mean
[21] = target: T8, Corticotropin-releasing factor receptor 2/Corticotropin-releasing factor-binding protein; assay: Dose Response confirmation of uHTS hits for small molecule antagonists of the CRF-binding protein and CRF-R2 receptor complex.; type: functional; conditions: read-out: IC50_Mean
[22] = target: Potassium voltage-gated channel subfamily KQT member 2 (Rattus norvegicus, UniProt O88943); assay: KCNQ2 potassium channel inhibitors, dose response, cell-based, automated electrophysiology, set II, rat KCNQ2 (AID 588637); type: functional
[23] = target: T6, Heat shock factor protein 1; assay: inhibition of MG132-induced HSE-luciferase signal, confirmation, cell-based, NIH3T3, luminescence, dose retest (AID 2382); type: functional;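 note: NIH3T3 fibroblasts with HSF1-driven luciferase reporter stressed by proteasome inhibitor MG132; luminescence from HSF1-driven luciferase expression after 8 hours of MG132 stress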
[24] = target: Palmitoyl-protein thioesterase ABHD10, mitochondrial (Mus musculus, UniProt Q6PE15); assay: Late stage assay provider results from the probe development effort to identify inhibitors of PME-1: fluorescence-based dose response biochemical gel-based competitive Activity-Based Protein Profiling (ABPP) inhibition of ABHD10 Set 1.; type: functional
[25] = target: T9, Botulinum neurotoxin type F (Clostridium botulinum, UniProt P30996); assay: High-throughput multiplex microsphere dose response for inhibitors of toxin protease, specifically Botulinum neurotoxin light chain F protease, compounds from Cherry Pick 02.; type: functional; conditions: read-out: EC50_MICROM
[26] = target: T9, Botulinum neurotoxin type F; assay: High-throughput multiplex microsphere dose response for inhibitors of toxin protease, specifically Botulinum neurotoxin light chain F protease, compounds from Cherry Pick 01.; type: functional; conditions: read-out: EC50_MICROM
[27] = test system: Vero; assay: Vero cell cytotoxicity, cytotoxicity control for flavivirus capping enzyme inhibitors (AID 588742); type: functional; conditions: Chlorocebus sabaeus
[28] = target: Ras and Rab interactor 1/Tyrosine-protein kinase ABL1 (Homo sapiens, UniProt P00519+Q13671); type: functional;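 note: biochemical TR-FRET dose-response test measuring inhibition of binding between Rin1 and Abl proteins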
[29] = target: Genome polyprotein (dengue virus type 2, UniProt P29990); assay: Dengue-2 NS5 methyltransferase inhibitors, primary screen, biochemical, confirmation dose response (AID 588689); type: functional
Chain of Genome polyprotein (P29990 2492-3391 limits assumed): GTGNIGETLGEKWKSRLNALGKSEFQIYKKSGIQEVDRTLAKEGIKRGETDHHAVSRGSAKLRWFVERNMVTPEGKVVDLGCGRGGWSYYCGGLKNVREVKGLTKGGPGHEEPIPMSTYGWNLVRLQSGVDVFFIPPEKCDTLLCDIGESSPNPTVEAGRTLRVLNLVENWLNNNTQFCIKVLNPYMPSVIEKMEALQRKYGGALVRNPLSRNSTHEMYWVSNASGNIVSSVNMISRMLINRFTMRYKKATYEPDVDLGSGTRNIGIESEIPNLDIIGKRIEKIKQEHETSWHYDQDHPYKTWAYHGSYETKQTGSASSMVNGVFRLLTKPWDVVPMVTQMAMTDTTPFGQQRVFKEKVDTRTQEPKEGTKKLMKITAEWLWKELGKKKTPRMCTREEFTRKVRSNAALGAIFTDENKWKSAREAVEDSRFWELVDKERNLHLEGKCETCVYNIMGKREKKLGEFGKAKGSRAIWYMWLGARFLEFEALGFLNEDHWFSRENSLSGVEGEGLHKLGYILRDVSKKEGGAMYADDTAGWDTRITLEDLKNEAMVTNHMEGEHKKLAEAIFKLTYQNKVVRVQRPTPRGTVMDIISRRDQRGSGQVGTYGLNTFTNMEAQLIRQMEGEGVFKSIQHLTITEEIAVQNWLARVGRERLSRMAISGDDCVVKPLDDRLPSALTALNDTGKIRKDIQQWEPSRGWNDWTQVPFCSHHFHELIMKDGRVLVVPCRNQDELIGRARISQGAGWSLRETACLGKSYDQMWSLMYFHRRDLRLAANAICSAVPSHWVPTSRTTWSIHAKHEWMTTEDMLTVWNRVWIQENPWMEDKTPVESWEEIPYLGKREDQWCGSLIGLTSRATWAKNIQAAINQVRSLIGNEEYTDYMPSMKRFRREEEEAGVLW

T2 sequence (Q38C91 whole entry): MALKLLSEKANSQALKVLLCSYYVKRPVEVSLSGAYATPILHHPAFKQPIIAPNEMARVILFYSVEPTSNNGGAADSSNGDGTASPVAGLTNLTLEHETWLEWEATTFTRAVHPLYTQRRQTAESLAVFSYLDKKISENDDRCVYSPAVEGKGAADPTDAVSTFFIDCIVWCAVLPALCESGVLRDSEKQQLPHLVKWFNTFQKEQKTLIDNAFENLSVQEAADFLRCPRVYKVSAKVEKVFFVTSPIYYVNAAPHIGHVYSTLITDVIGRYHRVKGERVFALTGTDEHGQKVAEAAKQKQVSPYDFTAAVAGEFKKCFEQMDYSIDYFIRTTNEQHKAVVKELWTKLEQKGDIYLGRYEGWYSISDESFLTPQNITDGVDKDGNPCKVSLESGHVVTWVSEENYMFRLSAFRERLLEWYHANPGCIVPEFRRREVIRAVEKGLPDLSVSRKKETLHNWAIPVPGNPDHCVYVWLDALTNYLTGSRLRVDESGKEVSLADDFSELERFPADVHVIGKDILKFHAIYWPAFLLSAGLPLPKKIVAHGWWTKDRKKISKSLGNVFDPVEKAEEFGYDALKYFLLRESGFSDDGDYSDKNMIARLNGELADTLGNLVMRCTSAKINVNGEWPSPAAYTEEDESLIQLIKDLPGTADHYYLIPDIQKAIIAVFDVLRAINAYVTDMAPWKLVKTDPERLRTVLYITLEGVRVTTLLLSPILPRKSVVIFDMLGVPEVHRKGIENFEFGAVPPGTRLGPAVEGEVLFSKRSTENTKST
T1 sequence (P08183 whole entry): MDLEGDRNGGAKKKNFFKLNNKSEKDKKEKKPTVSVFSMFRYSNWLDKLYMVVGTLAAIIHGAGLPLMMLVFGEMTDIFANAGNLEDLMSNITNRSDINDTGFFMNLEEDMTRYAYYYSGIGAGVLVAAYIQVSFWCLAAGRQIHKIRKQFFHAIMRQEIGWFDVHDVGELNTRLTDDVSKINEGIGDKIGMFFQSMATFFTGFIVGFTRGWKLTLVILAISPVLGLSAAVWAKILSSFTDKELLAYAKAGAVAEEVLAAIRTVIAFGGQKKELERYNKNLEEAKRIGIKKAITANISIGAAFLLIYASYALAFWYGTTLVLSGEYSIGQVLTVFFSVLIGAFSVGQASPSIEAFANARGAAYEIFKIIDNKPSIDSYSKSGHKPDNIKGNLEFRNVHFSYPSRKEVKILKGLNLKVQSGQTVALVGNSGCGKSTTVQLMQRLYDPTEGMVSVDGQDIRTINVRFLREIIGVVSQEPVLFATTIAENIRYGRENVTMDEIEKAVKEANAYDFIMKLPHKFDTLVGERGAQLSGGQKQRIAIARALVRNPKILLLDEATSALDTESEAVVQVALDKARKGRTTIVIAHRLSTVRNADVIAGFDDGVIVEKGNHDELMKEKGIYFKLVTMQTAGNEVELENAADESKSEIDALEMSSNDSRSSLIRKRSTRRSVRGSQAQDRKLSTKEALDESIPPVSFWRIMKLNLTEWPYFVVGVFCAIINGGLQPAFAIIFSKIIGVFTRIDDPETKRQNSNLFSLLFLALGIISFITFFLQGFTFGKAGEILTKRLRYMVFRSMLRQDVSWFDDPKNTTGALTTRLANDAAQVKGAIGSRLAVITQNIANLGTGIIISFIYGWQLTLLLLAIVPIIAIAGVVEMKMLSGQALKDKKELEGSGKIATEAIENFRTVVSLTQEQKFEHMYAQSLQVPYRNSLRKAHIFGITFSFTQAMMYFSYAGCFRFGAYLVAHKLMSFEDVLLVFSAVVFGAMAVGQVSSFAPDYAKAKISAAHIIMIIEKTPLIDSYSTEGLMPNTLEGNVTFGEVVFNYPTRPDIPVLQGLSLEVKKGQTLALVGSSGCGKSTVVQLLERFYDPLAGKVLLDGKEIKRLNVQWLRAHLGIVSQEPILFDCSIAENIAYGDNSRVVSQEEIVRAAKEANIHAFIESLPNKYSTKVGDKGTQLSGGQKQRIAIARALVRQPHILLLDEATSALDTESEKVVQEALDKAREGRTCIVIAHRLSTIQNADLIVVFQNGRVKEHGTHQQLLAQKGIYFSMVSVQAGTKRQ
T9 sequence (P30996 1-436 limits assumed): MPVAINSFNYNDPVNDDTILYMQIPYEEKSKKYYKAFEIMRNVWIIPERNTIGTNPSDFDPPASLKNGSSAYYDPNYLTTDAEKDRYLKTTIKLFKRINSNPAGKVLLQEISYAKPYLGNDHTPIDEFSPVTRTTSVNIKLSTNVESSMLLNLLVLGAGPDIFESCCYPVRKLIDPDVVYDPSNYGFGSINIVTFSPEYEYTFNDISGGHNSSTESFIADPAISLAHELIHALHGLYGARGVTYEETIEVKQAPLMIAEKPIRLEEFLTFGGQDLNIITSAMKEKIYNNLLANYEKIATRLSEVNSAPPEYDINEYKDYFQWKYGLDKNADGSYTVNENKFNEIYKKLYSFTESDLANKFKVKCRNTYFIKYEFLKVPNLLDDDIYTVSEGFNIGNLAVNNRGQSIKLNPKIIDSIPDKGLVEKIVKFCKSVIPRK
Chain of Induced myeloid leukemia cell differentiation protein Mcl-1 (Q07820 whole entry): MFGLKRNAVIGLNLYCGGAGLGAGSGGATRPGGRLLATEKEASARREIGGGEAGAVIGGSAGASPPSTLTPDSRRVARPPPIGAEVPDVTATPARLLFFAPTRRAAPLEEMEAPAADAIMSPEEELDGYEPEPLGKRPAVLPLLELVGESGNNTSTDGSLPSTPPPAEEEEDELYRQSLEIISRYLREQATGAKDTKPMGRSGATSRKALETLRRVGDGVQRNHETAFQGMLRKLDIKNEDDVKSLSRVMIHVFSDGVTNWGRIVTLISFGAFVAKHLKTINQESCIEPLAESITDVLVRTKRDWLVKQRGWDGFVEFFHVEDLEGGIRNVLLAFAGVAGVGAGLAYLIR
Chain of Palmitoyl-protein thioesterase ABHD10, mitochondrial (Q6PE15 whole entry): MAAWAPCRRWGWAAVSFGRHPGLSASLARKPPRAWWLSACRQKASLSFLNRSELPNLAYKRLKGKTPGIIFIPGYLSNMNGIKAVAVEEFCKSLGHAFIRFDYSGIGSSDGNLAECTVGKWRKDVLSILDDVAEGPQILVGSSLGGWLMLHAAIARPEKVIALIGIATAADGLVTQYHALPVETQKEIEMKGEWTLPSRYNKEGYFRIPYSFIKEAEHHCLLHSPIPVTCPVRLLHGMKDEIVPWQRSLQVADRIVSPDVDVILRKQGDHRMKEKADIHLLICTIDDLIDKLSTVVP
Chain of Potassium voltage-gated channel subfamily KQT member 2 (O88943 whole entry): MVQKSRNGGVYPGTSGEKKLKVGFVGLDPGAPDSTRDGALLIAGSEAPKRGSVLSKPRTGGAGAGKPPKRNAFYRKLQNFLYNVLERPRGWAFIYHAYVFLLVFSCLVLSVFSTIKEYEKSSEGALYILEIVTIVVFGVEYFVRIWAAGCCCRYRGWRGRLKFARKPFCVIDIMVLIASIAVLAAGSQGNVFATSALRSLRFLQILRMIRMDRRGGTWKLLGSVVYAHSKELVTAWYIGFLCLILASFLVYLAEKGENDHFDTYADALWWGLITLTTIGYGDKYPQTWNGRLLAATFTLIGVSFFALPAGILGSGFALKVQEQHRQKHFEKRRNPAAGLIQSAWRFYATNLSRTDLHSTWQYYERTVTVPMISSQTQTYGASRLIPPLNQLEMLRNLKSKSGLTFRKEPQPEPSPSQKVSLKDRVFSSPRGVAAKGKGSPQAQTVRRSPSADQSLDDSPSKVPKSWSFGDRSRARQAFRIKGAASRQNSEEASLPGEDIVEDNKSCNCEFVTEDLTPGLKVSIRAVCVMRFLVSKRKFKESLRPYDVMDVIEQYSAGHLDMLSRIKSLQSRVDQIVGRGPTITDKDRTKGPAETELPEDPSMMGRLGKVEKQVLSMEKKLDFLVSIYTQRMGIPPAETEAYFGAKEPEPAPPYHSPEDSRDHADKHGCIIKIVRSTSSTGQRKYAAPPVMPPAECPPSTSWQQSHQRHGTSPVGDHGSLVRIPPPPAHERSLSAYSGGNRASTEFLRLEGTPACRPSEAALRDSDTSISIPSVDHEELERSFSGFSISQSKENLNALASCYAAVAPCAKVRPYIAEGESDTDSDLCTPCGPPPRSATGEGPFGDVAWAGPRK

Cc1cccc(N(C(=O)Cn2nnc3ccccc32)C(C(=O)NC(C)(C)C)c2ccsc2)c1 (stereo not given)
AC50 [1]: 31.3 µM (active)

Cc1cccc(-c2nc3nc(C)cc(N4CCN(C(=O)c5ccco5)CC4)n3n2)c1
EC50 [2]: 14.6 µM (active) | EC50 [3]: 6 µM (active)

COc1ccc(N2CCC(CNC(=O)Nc3ccc(Cl)cc3)C2)cc1 (stereo not given)
IC50 [4]: 38.4 µM (inactive) | IC50 [5]: 27.3 µM (inactive) | IC50 [6]: 83.3 µM (inactive) | IC50 [7]: > 54 µM (not active)

COc1ccc(N2C(=O)[C@@H]3[C@H](C2=O)[C@H]2c4ccccc4C=CN2[C@@H]3C(=O)Nc2ccccc2)cc1
IC50 [8]: > 50 µM (inactive) | IC50 [9]: 12.4 µM (active) | IC50 [10]: 3.72 µM (active) | IC50 [11]: 16.7 µM (active)

COc1cccc(CNC(=O)COC(=O)c2ccc(C(=O)c3ccccc3)cc2)c1
AC50 [12]: 79.3 µM (active)

Nc1nc2ccccc2n1/N=C/c1ccc([N+](=O)[O-])s1
AC50 [13]: 4.11 µM (active) | IC50 [14]: 15.3 µM (active) | EC50 [15]: 4.39 µM (active) | EC50 [16]: > 104 µM (inactive) | AC50 [17]: 2.81 µM (active)

COC(=O)c1cc(=O)n(Cc2ccco2)/c(=N/c2ccc(F)cc2)s1
IC50 [18]: 5.67 µM (active)

CC1(C)C2CC=C(/C=N/NC(=O)c3ccccc3O)C1C2 (stereo not given)
EC50 [19]: 31.1 µM (active) | IC50 [20]: > 20 µM (inactive) | IC50 [21]: 5.3 µM (active)

COc1cccc(-c2nc(CS(=O)(=O)CC(=O)NC3CCCc4ccccc43)c(C)o2)c1 (stereo not given)
IC50 [22]: 0.869 µM (active)

CCOC(=O)N1C(=O)[C@@](CC)(c2ccccc2)N1C(=O)OCC
EC50 [23]: > 195 µM (not active) | IC50 [24]: 0.173 µM (active) | AC50 [17]: 12.5 µM (active)

O=C(Nc1cnc(O)nc1O)c1cc([N+](=O)[O-])cc([N+](=O)[O-])c1
EC50 [25]: 2.7 µM (active) | EC50 [26]: 3.9 µM (active)

CCOc1c(Cl)cc(C(=O)Nc2ccccc2C(=O)O)cc1Cl
CC50 [27]: > 40 µM (active) | IC50 [28]: 26.8 µM (inactive) | IC50 [29]: 52 µM (active)
